Laboratory results taken from article PMC10794144, “A novel antibiotic class targeting the lipopolysaccharide transporter” (Nature, 2024).
Converted amounts (≈) assume the structure as drawn. Where two headings read alike, the source gives them in different places.

What was measured:
GSH adduct = assay type: in vitro ADME
A. baumannii = experiment: microbe, parasite or virus in culture
In short: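 Broth microdilution following CLSI M07 and M100. Inocula were diluted from a 0.5 McFarland suspension in CAMHB. MIC is the lowest compound concentration inhibiting visible growth, or beyond which OD600 ceased to decrease.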

## CN1C(=O)[C@H](CCCCN)NC(=O)[C@H](CCCN)NCc2cccnc2Sc2c(Cl)ccc(Cl)c2CNC(=O)[C@@H]1Cc1c[nH]c2ccccc12 [RO7075573]
GSH adduct
  GSH adduct: Clean
A. baumannii; ATCC 17978, Study LGC301026
  MIC 80%: 0.12 µg/mL (≈ 0.162 µM)
  MIC 100%: 0.12 µg/mL (≈ 0.162 µM)
A. baumannii; ATCC 17978, Study LGC308175
  MIC 80%: ≤0.06 µg/mL
  MIC 100%: ≤0.06 µg/mL
A. baumannii; ATCC 19606, Study LGC281440
  MIC 80%: 0.12 µg/mL (≈ 0.162 µM)
  MIC 100%: 0.12 µg/mL (≈ 0.162 µM)
A. baumannii; ATCC 19606, Study LGC282160
  MIC 80%: 0.25 µg/mL (≈ 0.338 µM)
  MIC 100%: 0.25 µg/mL (≈ 0.338 µM)
A. baumannii; ATCC 19606, Study LGC284879
  MIC 80%: 0.25 µg/mL (≈ 0.338 µM)
  MIC 100%: 0.25 µg/mL (≈ 0.338 µM)
A. baumannii; ATCC 19606, Study LGC285582
  MIC 80%: 0.12 µg/mL (≈ 0.162 µM)
  MIC 100%: 0.25 µg/mL (≈ 0.338 µM)
A. baumannii; ATCC 19606, Study LGC286210
  MIC 80%: 0.12 µg/mL (≈ 0.162 µM)
  MIC 100%: 0.12 µg/mL (≈ 0.162 µM)
A. baumannii; ATCC 19606, Study LGC293598
  MIC 80%: 0.12 µg/mL (≈ 0.162 µM)
  MIC 100%: 0.25 µg/mL (≈ 0.338 µM)
A. baumannii; ATCC 19606, Study LGC294355
  MIC 80%: 0.12 µg/mL (≈ 0.162 µM)
  MIC 100%: 0.12 µg/mL (≈ 0.162 µM)
A. baumannii; ATCC 19606, Study LGC295147
  MIC 80%: 0.25 µg/mL (≈ 0.338 µM)
  MIC 100%: 0.25 µg/mL (≈ 0.338 µM)
A. baumannii; ATCC 19606, Study LGC296813
  MIC 80%: 0.12 µg/mL (≈ 0.162 µM)
  MIC 100%: 0.25 µg/mL (≈ 0.338 µM)
A. baumannii; ATCC 19606, Study LGC299544
  MIC 80%: 0.12 µg/mL (≈ 0.162 µM)
  MIC 100%: 0.12 µg/mL (≈ 0.162 µM)
A. baumannii; ATCC 19606, Study LGC301026
  MIC 80%: 0.12 µg/mL (≈ 0.162 µM)
  MIC 100%: 0.25 µg/mL (≈ 0.338 µM)
A. baumannii; ATCC 19606, Study LGC308175
  MIC 80%: 0.12 µg/mL (≈ 0.162 µM)
  MIC 100%: 0.12 µg/mL (≈ 0.162 µM)
A. baumannii; ATCC 19606, Study ROC010
  MIC 80%: 0.25 µg/mL (≈ 0.338 µM)
  MIC 100%: 0.5 µg/mL (≈ 0.676 µM)
A. baumannii; ATCC 19606, Study ROC012
  MIC 80%: 0.12 µg/mL (≈ 0.162 µM)
  MIC 100%: 0.25 µg/mL (≈ 0.338 µM)
A. baumannii; Acinetobacter baumannii, 10 MDR isolates, CAMHB, MCPs read at 80% growth inhibition
  MIC90: 0.5 µg/mL (≈ 0.676 µM)
A. baumannii; Acinetobacter baumannii, ATCC17978, ATCC 17978, CAMHB, MCPs read at 80% inhibition
  MIC: 0.12 µg/mL (≈ 0.162 µM)
A. baumannii; Acinetobacter baumannii, ATCC17978, ATCC 17978, CAMHB, one replicate, MCPs read at 80% growth inhibition
  MIC: ≤ 0.06 µg/mL
A. baumannii; Acinetobacter baumannii, ATCC19606, ATCC 19606, CAMHB, MCPs read at 80% growth inhibition
  MIC: 0.12 µg/mL (≈ 0.162 µM)
A. baumannii; Acinetobacter baumannii, ATCC19606, ATCC 19606, CAMHB, MCPs read at 80% inhibition
  MIC: 0.12 µg/mL (≈ 0.162 µM)
A. baumannii; Acinetobacter baumannii, ROB08701, CAMHB, MCPs read at 80% inhibition
  MIC: 0.12 µg/mL (≈ 0.162 µM)
A. baumannii; Acinetobacter baumannii, ROB08702, CAMHB, MCPs read at 80% inhibition
  MIC: 0.12 µg/mL (≈ 0.162 µM)
A. baumannii; Acinetobacter baumannii, ROB08703, CAMHB, MCPs read at 80% inhibition
  MIC: 0.25 µg/mL (≈ 0.338 µM)
A. baumannii; Acinetobacter baumannii, ROB08704, CAMHB, MCPs read at 80% inhibition
  MIC: 0.5 µg/mL (≈ 0.676 µM)
A. baumannii; Acinetobacter baumannii, ROB08705, CAMHB, MCPs read at 80% inhibition
  MIC: ≤ 0.06 µg/mL
A. baumannii; Acinetobacter baumannii, ROB08706, CAMHB, MCPs read at 80% inhibition
  MIC: 0.5 µg/mL (≈ 0.676 µM)
A. baumannii; Acinetobacter baumannii, ROB08707, CAMHB, MCPs read at 80% inhibition
  MIC: 0.12 µg/mL (≈ 0.162 µM)
A. baumannii; Acinetobacter baumannii, ROB08708, CAMHB, MCPs read at 80% inhibition
  MIC: 0.12 µg/mL (≈ 0.162 µM)
A. baumannii; Acinetobacter baumannii, ROB08709, CAMHB, MCPs read at 80% inhibition
  MIC: 0.12 µg/mL (≈ 0.162 µM)
A. baumannii; Acinetobacter baumannii, ROB08710, CAMHB, MCPs read at 80% inhibition
  MIC: 0.12 µg/mL (≈ 0.162 µM)
A. baumannii; Acinetobacter baumannii, read-out: MIC read at 80% growth inhibition, CAMHB
  MIC: 2 µg/mL (≈ 2.7 µM)
A. baumannii; Acinetobacter baumannii, read-out: MIC read at 100% growth inhibition, CAMHB
  MIC: > 64 µg/mL
A. baumannii; ROB08701, Study LGC281440
  MIC 80%: 0.12 µg/mL (≈ 0.162 µM)
  MIC 100%: 0.25 µg/mL (≈ 0.338 µM)
A. baumannii; ROB08701, Study LGC282160
  MIC 80%: 0.12 µg/mL (≈ 0.162 µM)
  MIC 100%: 1 µg/mL (≈ 1.35 µM)
A. baumannii; ROB08701, Study LGC284879
  MIC 80%: 0.25 µg/mL (≈ 0.338 µM)
  MIC 100%: 0.5 µg/mL (≈ 0.676 µM)
A. baumannii; ROB08701, Study LGC285582
  MIC 80%: 0.12 µg/mL (≈ 0.162 µM)
  MIC 100%: 64 µg/mL (≈ 86.5 µM)
A. baumannii; ROB08701, Study LGC286210
  MIC 80%: 0.12 µg/mL (≈ 0.162 µM)
  MIC 100%: 64 µg/mL (≈ 86.5 µM)
A. baumannii; ROB08701, Study LGC293598
  MIC 80%: 0.12 µg/mL (≈ 0.162 µM)
  MIC 100%: 0.25 µg/mL (≈ 0.338 µM)
A. baumannii; ROB08701, Study LGC294355
  MIC 80%: 0.12 µg/mL (≈ 0.162 µM)
  MIC 100%: 0.25 µg/mL (≈ 0.338 µM)
A. baumannii; ROB08701, Study LGC295147
  MIC 80%: 0.12 µg/mL (≈ 0.162 µM)
  MIC 100%: 0.12 µg/mL (≈ 0.162 µM)
A. baumannii; ROB08701, Study LGC296813
  MIC 80%: 0.12 µg/mL (≈ 0.162 µM)
  MIC 100%: 0.25 µg/mL (≈ 0.338 µM)
A. baumannii; ROB08701, Study LGC299544
  MIC 80%: 0.12 µg/mL (≈ 0.162 µM)
  MIC 100%: 64 µg/mL (≈ 86.5 µM)
A. baumannii; ROB08701, Study LGC301026
  MIC 80%: 0.5 µg/mL (≈ 0.676 µM)
  MIC 100%: 64 µg/mL (≈ 86.5 µM)
A. baumannii; ROB08701, Study LGC308175
  MIC 80%: 0.12 µg/mL (≈ 0.162 µM)
  MIC 100%: 64 µg/mL (≈ 86.5 µM)
A. baumannii; ROB08701, Study ROC010
  MIC 80%: 0.25 µg/mL (≈ 0.338 µM)
  MIC 100%: 0.5 µg/mL (≈ 0.676 µM)
A. baumannii; ROB08701, Study ROC012
  MIC 80%: 0.12 µg/mL (≈ 0.162 µM)
  MIC 100%: 8 µg/mL (≈ 10.8 µM)
A. baumannii; ROB08702, Study LGC281440
  MIC 80%: 0.12 µg/mL (≈ 0.162 µM)
  MIC 100%: >64 µg/mL
A. baumannii; ROB08702, Study LGC282160
  MIC 80%: 2 µg/mL (≈ 2.7 µM)
  MIC 100%: >64 µg/mL
A. baumannii; ROB08702, Study LGC284879
  MIC 80%: 0.12 µg/mL (≈ 0.162 µM)
  MIC 100%: >64 µg/mL
A. baumannii; ROB08702, Study LGC285582
  MIC 80%: 0.12 µg/mL (≈ 0.162 µM)
  MIC 100%: >64 µg/mL
